The results in this text go back to patent US20260193264A1, “BENZOYPARAZINE PYRAZINES AND THEIR USES” (FOGHORN THERAPEUTICS INC., priority 2022, published 2026).

Bounds are passed on as bounds.

The target of assay [1] is T1, HiBiT-BRM fusion protein in stable HeLa cell line (Homo sapiens, UniProt P51531).
T1 construct: expressed in transfected cells
The experiment in a line: HiBiT-BRM cell-based degradation assay (Nano-Glo HiBiT Lytic Detection, 24 h). More on the design: DC50: scale not given here. As to conditions: HeLa HiBiT-BRM cells; for DC50: read-out: BRM HiBit Degradation IC50; for BRM HiBit Degradation Maximum (%): top dose 30 μM. The method, boiled down:
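Percent degradation was scaled between DMSO-treated cells and cells given 2 μM of a known BRM/BRG1 degrader. Readout was NanoBiT luminescence after lytic detection. HeLa cells stably expressing HiBiT-BRM were dosed for 24 h, 10 points, 3-fold steps from 30 μM final, in duplicate.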

Assay [2] addresses T2, HiBit-BRG1 fusion protein in stable HeLa cell line expressing HiBit-BRG1 and LgBit (Homo sapiens, UniProt P51532).
T2 construct: expressed in transfected cells
The experiment in a line: HiBiT-BRG1 cell-based degradation assay (Nano-Glo HiBiT, 24 h). As to conditions: HeLa HiBit-BRG1/LgBit cells; for DC50: read-out: BRMG1 HiBit Degradation IC50; for Dmax: top dose 30 μM, read-out: BRG1 HiBit Degradation Maximum (%). The method, boiled down:
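Degradation calculated from NanoBiT luminescence relative to DMSO-treated cells (high) and cells given 2 μM known BRM/BRG1 degrader (low). HeLa cells stably expressing HiBiT-BRG1 plus LgBiT were exposed to compound for 24 h before lytic HiBiT detection.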
A general note: HiBiT is a short tag that completes a luciferase, so light tracks the accessible tagged protein.

T1 sequence (P51531 whole entry, the tested form may be a part): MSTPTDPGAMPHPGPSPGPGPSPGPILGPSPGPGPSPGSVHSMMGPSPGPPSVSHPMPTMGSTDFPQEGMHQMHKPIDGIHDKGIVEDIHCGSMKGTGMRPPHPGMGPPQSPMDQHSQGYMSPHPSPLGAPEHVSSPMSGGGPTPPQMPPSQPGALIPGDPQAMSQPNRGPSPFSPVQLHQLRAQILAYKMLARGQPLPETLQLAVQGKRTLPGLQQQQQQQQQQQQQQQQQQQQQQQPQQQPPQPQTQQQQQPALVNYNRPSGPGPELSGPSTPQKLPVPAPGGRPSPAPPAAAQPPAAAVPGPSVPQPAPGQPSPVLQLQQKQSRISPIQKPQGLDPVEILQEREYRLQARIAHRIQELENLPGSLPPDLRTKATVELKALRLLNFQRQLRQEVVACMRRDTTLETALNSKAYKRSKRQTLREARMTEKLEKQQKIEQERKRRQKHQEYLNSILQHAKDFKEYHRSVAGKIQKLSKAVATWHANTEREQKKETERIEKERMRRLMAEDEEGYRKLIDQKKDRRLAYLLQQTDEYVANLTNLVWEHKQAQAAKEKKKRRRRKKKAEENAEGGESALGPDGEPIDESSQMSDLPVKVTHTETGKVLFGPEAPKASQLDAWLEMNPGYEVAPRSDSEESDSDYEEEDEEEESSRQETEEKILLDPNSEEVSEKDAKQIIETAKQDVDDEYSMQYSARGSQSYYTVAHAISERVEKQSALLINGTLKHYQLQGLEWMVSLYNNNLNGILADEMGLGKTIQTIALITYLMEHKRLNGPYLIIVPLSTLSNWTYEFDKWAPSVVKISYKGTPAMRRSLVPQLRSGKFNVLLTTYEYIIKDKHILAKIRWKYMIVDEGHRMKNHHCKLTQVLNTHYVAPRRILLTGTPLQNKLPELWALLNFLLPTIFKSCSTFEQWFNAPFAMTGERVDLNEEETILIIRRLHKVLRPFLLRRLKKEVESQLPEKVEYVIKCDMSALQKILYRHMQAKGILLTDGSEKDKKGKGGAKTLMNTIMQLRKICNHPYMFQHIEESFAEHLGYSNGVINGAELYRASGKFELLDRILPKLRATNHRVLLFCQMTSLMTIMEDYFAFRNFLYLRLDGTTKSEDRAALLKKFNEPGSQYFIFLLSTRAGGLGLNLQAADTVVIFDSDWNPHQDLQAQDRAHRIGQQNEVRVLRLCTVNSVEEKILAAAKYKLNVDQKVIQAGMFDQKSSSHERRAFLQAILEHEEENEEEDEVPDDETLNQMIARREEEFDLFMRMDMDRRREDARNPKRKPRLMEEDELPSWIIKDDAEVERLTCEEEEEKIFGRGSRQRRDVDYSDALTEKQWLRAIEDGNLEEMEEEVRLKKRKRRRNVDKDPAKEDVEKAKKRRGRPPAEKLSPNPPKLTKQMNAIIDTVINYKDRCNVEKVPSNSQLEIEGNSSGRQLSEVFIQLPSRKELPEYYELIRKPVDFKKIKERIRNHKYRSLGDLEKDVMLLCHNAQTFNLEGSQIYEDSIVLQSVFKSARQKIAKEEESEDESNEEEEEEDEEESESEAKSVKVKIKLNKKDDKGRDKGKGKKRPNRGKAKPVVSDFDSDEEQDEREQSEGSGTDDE
T2 sequence (P51532 whole entry, the tested form may be a part): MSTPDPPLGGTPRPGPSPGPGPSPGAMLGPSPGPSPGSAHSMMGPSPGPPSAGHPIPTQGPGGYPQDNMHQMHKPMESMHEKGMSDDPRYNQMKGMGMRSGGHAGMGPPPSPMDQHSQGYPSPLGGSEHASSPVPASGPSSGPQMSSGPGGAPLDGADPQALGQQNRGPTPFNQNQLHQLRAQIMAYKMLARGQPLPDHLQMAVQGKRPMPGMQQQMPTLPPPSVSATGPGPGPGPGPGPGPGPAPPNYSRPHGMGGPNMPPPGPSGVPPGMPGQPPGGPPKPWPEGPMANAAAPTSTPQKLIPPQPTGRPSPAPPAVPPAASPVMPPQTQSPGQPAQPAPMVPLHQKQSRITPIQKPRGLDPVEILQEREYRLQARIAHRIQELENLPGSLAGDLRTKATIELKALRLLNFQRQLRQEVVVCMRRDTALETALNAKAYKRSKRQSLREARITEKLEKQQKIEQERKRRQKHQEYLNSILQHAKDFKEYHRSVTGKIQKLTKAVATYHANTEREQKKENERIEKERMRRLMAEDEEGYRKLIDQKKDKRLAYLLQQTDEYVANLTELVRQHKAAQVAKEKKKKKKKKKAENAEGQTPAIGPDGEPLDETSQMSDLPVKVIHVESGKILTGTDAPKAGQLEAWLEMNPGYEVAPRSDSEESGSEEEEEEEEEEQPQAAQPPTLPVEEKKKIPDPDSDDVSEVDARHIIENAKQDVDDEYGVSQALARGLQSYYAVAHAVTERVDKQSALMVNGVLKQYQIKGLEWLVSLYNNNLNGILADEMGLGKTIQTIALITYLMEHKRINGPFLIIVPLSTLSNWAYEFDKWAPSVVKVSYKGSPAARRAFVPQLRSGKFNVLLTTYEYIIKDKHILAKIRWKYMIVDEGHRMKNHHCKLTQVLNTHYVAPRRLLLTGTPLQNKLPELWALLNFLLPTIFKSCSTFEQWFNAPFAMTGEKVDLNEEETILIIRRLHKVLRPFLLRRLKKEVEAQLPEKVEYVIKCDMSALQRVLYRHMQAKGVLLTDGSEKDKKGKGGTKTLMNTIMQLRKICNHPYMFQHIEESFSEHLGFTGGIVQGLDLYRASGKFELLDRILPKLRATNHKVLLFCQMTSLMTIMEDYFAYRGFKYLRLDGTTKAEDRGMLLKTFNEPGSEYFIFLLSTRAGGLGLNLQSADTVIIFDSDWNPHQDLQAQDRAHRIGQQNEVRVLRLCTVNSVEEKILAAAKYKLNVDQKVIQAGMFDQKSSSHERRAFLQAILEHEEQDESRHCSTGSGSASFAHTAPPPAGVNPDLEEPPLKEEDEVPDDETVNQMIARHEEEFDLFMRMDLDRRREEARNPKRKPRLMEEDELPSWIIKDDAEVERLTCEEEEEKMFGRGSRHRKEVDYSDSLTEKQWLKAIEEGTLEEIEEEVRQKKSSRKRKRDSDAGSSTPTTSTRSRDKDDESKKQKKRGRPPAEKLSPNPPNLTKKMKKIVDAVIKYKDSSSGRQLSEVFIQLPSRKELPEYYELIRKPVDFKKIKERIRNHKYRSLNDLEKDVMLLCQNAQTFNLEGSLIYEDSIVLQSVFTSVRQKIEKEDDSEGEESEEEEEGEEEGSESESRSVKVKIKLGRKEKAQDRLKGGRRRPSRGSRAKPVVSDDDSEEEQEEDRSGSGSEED

Take `Cc1ncsc1-c1ccc([C@H](C)NC(=O)[C@@H]2C[C@@H](O)CN2C(=O)[C@H](C(C)C)n2cc(-c3ccc4nnc(-c5ccccc5O)cc4c3)nn2)cc1` [Compound 128, (2S,4R)-4-hydroxy-1-((S)-2-(4-(3-(2-hydroxyphenyl)cinnolin-6-yl)-1H-1,2,3-triazol-1-yl)-3-methylbutanoyl)-N—((S)-1-(4-(4-methylthiazol-5-yl)phenyl)ethyl)pyrrolidine-2-carboxamide]: in assay [1], the DC50 is below 0.01 µM and the “BRM HiBit Degradation Maximum (%)” value is reported as “A (“A” indicates maximum degradation ≥75%)”. Moreover, in assay [2], the DC50 was below 0.01 µM and the Dmax was above 75%.
Regarding `Cc1ncsc1-c1ccc([C@H](C)NC(=O)[C@@H]2C[C@@H](O)CN2C(=O)[C@@H](c2cc(N3CC[C@H](c4ccc5nnc(-c6ccccc6O)cc5c4)C3)no2)C(C)C)cc1` [Compound 55, (2S,4R)-4-hydroxy-1-((R)-2-(3-((R)-3-(3-(2-hydroxyphenyl)cinnolin-6-yl)pyrrolidin-1-yl)isoxazol-5-yl)-3-methylbutanoyl)-N-((S)-1-(4-(4-methylthiazol-5-yl)phenyl)ethyl)pyrrolidine-2-carboxamide], in assay [1], the DC50 is above 0.01 µM and the “BRM HiBit Degradation Maximum (%)” value was “B (“B” indicates maximum degradation ≥50%)”. For the same compound, the Dmax in assay [2] was below 50%.
For the compound `Cc1ncsc1-c1ccc([C@H](C)NC(=O)[C@@H]2C[C@@H](O)CN2C(=O)C(C(C)C)n2cc(N3CCC34CN(c3ccc5cc(-c6ccccc6O)nnc5c3)C4)nn2)cc1` (stereo partly drawn) [Compound 265, (2S,4R)-4-hydroxy-1-(2-(4-(6-(3-(2-hydroxyphenyl)cinnolin-7-yl)-1,6-diazaspiro[3.3]heptan-1-yl)-1H-1,2,3-triazol-1-yl)-3-methylbutanoyl)-N-((S)-1-(4-(4-methylthiazol-5-yl)phenyl)ethyl)pyrrolidine-2-carboxamide], in assay [1], the DC50 is above 0.1 µM and the “BRM HiBit Degradation Maximum (%)” value is recorded as “A (“A” indicates maximum degradation ≥75%)”. In assay [2], the DC50 is above 0.1 µM and the Dmax is above 75%.
As to `Cc1ncsc1-c1ccc([C@H](C)NC(=O)[C@@H]2C[C@@H](O)CN2C(=O)[C@@H](c2cc(N3CCC[C@H](c4ccc5cc(-c6ccccc6O)nnc5c4)C3)no2)C(C)C)cc1` [Compound 90, (2S,4R)-4-hydroxy-1-((R)-2-(3-((R)-3-(3-(2-hydroxyphenyl)cinnolin-7-yl)piperidin-1-yl)isoxazol-5-yl)-3-methylbutanoyl)-N-((S)-1-(4-(4-methylthiazol-5-yl)phenyl)ethyl)pyrrolidine-2-carboxamide], in assay [1], the DC50 was below 0.01 µM and the “BRM HiBit Degradation Maximum (%)” value is “A (“A” indicates maximum degradation ≥75%)”. Further, in assay [2], the DC50 is below 0.01 µM and the Dmax was above 75%.
As for `Cc1ncsc1-c1ccc([C@H](C)NC(=O)[C@@H]2C[C@@H](O)CN2C(=O)[C@@H](c2cc(-c3cnc(N4CC[C@@H](c5ccc6nnc(-c7ccccc7O)cc6c5)C4)nc3)no2)C(C)C)cc1` [Compound 50, (2S,4R)-4-hydroxy-1-((R)-2-(3-(2-((S)-3-(3-(2-hydroxyphenyl)cinnolin-6-yl)pyrrolidin-1-yl)pyrimidin-5-yl)isoxazol-5-yl)-3-methylbutanoyl)-N-((S)-1-(4-(4-methylthiazol-5-yl)phenyl)ethyl)pyrrolidine-2-carboxamide], in assay [1], the DC50 is below 0.01 µM and the “BRM HiBit Degradation Maximum (%)” value is listed as “A (“A” indicates maximum degradation ≥75%)”. The Dmax in assay [2] is above 50%.
As to `Cc1ncsc1-c1ccc([C@H](C)NC(=O)[C@@H]2C[C@@H](O)CN2C(=O)C(C(C)C)n2cc(N3CCCC4(CCN(c5ccc6cc(-c7ccccc7O)nnc6c5)CC4)C3)nn2)cc1` (stereo partly drawn) [Compound 251, (2S,4R)-4-hydroxy-1-(2-(4-(9-(3-(2-hydroxyphenyl)cinnolin-7-yl)-2,9-diazaspiro[5.5]undecan-2-yl)-1H-1,2,3-triazol-1-yl)-3-methylbutanoyl)-N-((S)-1-(4-(4-methylthiazol-5-yl)phenyl)ethyl)pyrrolidine-2-carboxamide], in assay [1], the DC50 was below 0.01 µM and the “BRM HiBit Degradation Maximum (%)” value is “A (“A” indicates maximum degradation ≥75%)”. Also, in assay [2], the DC50 is below 0.01 µM and the Dmax is above 75%.
